One test addresses T1, IDH1^R132C (Homo sapiens, UniProt O75874, R132C).
T1 construct: purchased not specified
The test is described as follows: NADPH depletion assay, IDH1 R132C. The format is biochemical. Put shortly: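 Fluorescence readout (Ex544/Em590) of NADPH left after diaphorase/resazurin addition. Alpha-ketoglutarate 0.14 mM final, enzyme 2 nM final; compound preincubation 15 min, then 60 min reaction, both at room temperature, pH 7.6 Tris buffer.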

Another test deals with HT-1080 (IDH1^R132C). Put plainly: Cellular 2-HG production assay, HT-1080. The format is cell-based. Particulars: Homo sapiens, HT-1080, 72 h, inhibition of 2HG production, 72 hr incubation, LC-MS/MS; read-out: HT1080 2-HG IC50. On the procedure:
Cell lines HT-1080 (commercially available) and U87-MG-IDH1^R132H (obtained in analoy to the procedure reported in J. Mol. Neurosci 2013, 50, 165-71) are maintained in E-MEM 10% FCS and incubated at 37° C. in a humidified 5% CO2 atmosphere. Stably transfected U87-MG cell lines are also supplemented with 500 μg/mL G418.
Cells are seeded into 96 well black flat bottom plates at a density of 500 cells/well in 100 μL complete medium. After 24 hr the medium is replaced with 200 uL of fresh medium and compounds (dissolved into DMSO) are administrated to the cells using D300E Digital Dispenser (Tecan).
After 72 hr of incubation 100 uL from each well are collected and used for 2HG (R(−)-2-hydroxyglutarate) quantification.
Levels of 2-HG in cell culture media are determined by LC-MS/MS. Cell supernatants (100 μL/well) are treated with 1 M aqueous trichloroacetic acid containing 130 μM of the internal standard 2-HG-d3 (20 μL/well) in a 96-well plate.
The plates are sealed, mildly vortexed for 60 minutes, centrifuged at 4,000 RPM for 15 minutes, placed in a refrigerated autosampler taking care not to shake them, and aliquots of the upper part of the samples are directly injected in the chromatographic system. Calibration standards are obtained by ten fold dilution of aqueous 2-HG stock solutions with blank cell culture medium and denatured exactly in the same way as described above for samples. Samples and standards are assayed for 2-HG by reversed phase chromatography on a C18 column eluted with aqueous 0.15% formic acid and briefly washed with 90% methanol at the end of the run. 2-HG is determined by negative ion electrospray ionization with the internal standard method on a triple quadrupole mass spectrometer monitoring the MRM transitions 147>129 (2-HG) and 150>132 (2-HG-d3). 2-HG inhibition was calculated by comparing treated versus control data using Assay Explore (Symyx) software, with IC50 determined using a sigmoidal fitting algorithm.

In a further test the target is T2, IDH2^R172K (Homo sapiens, UniProt P48735, R172K).
T2 construct: purchased not specified
T2 sequence (P48735 40-452 R172K): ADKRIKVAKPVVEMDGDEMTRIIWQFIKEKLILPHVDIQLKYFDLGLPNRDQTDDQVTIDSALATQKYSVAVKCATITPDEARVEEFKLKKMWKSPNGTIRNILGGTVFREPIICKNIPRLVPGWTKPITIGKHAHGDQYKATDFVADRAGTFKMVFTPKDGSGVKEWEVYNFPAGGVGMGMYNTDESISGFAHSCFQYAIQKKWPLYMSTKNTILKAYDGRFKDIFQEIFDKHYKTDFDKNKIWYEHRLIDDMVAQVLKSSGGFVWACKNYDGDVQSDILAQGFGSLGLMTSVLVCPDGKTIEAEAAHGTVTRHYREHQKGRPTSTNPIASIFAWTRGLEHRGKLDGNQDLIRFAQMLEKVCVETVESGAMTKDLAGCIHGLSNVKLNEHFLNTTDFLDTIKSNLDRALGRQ
The test is described as follows: NADPH depletion assay, IDH2 R172K. The format is biochemical. Put shortly:
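This NADPH depletion assay measures NADPH left after conversion of alpha-ketoglutarate (0.55 mM final) by 16 nM IDH2 R172K over 60 min at room temperature, after a 15 min compound preincubation in pH 7.6 Tris buffer. Substrate mix held 12 μM NADPH. Diaphorase/resazurin gave the fluorescence read-out at 544/590 nm.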

For test [1], the target named is T3, IDH1^R132H homodimer enzyme (Homo sapiens, UniProt O75874, R132H).
T3 construct: purchased not specified
T3 sequence (O75874 whole entry R132H): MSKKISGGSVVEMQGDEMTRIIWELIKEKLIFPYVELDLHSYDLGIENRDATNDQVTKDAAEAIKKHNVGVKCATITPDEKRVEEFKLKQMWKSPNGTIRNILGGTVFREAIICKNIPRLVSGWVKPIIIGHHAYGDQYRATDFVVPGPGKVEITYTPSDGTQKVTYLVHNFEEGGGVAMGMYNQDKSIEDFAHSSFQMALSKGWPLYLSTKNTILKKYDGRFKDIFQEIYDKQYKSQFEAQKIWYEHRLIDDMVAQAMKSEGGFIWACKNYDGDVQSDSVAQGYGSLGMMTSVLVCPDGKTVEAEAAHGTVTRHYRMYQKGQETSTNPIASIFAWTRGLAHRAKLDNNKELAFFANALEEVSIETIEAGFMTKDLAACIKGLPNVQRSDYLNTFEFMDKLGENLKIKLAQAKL
Put plainly: NADPH depletion assay, IDH1 R132H. The format is biochemical. Summed up:
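IDH1 R132H enzyme (8 nM as diluted) in Tris-HCl pH 7.6 with 10 mM MgCl2, 0.001% Triton X-100 and 4 mM β-mercaptoethanol is preincubated 15 min at RT with compound. Substrate mix (12 uM NADPH, 3.4 mM α-ketoglutarate) is added for 60 min; remaining NAD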

The target in the next test is T4, IDH1WT enzyme (Homo sapiens, UniProt O75874).
T4 construct: purchased not specified
T4 sequence (O75874 whole entry): as the sequence (O75874 whole entry R132H) above, with H132R counted along it
Put plainly: Enzymatic assay for IDH1 wild-type (NADPH forming assay). It is filed as biochemical. On the procedure: IDH1WT enzymatic activity converting isocitric acid to alpha-ketoglutarate is measured using a NADPH forming assay. In the assay the forming cofactor is measured in continuous with the addition of a catalytic excess of diaphorase and resazurin, to generate a fluorescent signal in proportion to the amount of NADPH forming.
Compounds were preincubated with the enzyme, then the reaction was started by the addition of NADP^+, isocitrate, diaphorase and a corresponding substrate, resazurin. Diaphorase reduces resazurin to the highly fluorescent resorufin with the concomitant oxidation of NADPH to NADP. Specifically, 0.2 uL of test compound, previously serially diluted 1 to 3, 10 experimental points from 1 mM in DMSO, was added to 0.016 nM IDH1WT enzyme in 10 μL of Assay Buffer (150 mM NaCl, 50 mM Tris-HCl pH 7.6, 10 mM MgCl2, 0.001% Triton X-100, 4 mM β-mercaptoethanol); the mixture is incubated for 15 minutes at room temperature. The reaction is started with the addition of 10 μL of Substrate Mix (400 μM NADP^+, 40 μM iso-citrate, 5 ugr/mL Diaphorase and 7 μM resazurin in Assay Buffer), the mixture is incubated at room temperature and the reaction is reading on a ViewLux as platereader at Ex544/Em590 in continuous.

The test system of a further test is U87MG_IDH1R132H. The test is described as follows: Cellular 2-HG production assay, U87-MG-IDH1 R132H. Particulars: inhibition of 2HG production, 72 hr incubation, LC-MS/MS. It is filed as cell-based. Put shortly:
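Cells in E-MEM/10% FCS (G418 500 μg/mL for the transfected U87-MG line) at 500 per well got compound 24 h after seeding and were incubated 72 h at 37 °C. Medium 2-HG was measured by LC-MS/MS with 2-HG-d3 internal standard; IC50 came from sigmoidal fitting versus controls.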

T1 sequence (O75874 whole entry R132C): as the sequence (O75874 whole entry R132H) above, with H132C counted along it

The term IC50 denotes the concentration that inhibits the measured activity by half. Turning to `C=CC(=O)N1CCN(C(CC)c2ccc([C@H](C)Nc3ncc4ccc(=O)n(CC)c4n3)cc2)CC1` (stereo partly drawn) [cpd 214, 2-{[(1S)-1-{4-[1-(4-acryloylpiperazin-1-yl)propyl]phenyl}ethyl]amino}-8-ethylpyrido[2,3-d]pyrimidin-7(8H)-one], the IC50 came out at 2 nM against IDH1^R132C; 2.1 nM in the test with HT-1080 (IDH1^R132C); 15 nM against IDH2^R172K; 4 nM in test [1]; 64 nM at IDH1WT enzyme.
Take `C=C(C)C(=O)N1CCN(Cc2ccc([C@H](C)Nc3ncc4ccc(=O)n(CC(C)(C)C)c4n3)cc2)CC1` [cpd 144, 8-(2,2-dimethylpropyl)-2-{[(1S)-1-(4-{[4-(2-methylacryloyl)piperazin-1-yl]methyl}phenyl)ethyl]amino} pyrido [2,3-d]pyrimidin-7(8H)-one]: the values for the concentration for half-maximal inhibition (IC50) (at IDH1^R132C; in test [1]; at IDH1WT enzyme) were 25 nM, 78 nM and 6800 nM, respectively.
Take `C=CC(=O)N1CCN(c2ccc([C@H](C)Nc3ncc4ccc(=O)n([C@@H](C)C(C)C)c4n3)cn2)CC1` [cpd 181, 2-({(1S)-1-[6-(4-acryloylpiperazin-1-yl)pyridin-3-yl]ethyl}amino)-8-[(2S)-3-methylbutan-2-yl]pyrido[2,3-d]pyrimidin-7(8H)-one]: the concentration for half-maximal inhibition (IC50) was 351 nM against IDH1^R132C, 878 nM at IDH2^R172K, 175 nM in test [1] and 2140 nM against IDH1WT enzyme.
For the compound `C=C(C)C(=O)N1CCN(Cc2ccc([C@H](C)Nc3ncc4ccc(=O)n([C@@H](C)C(C)C)c4n3)cc2)CC1` [cpd 162, 8-((S)-1,2-Dimethyl-propyl)-2-((S)-1-{4-[4-(2-methyl-acryloyl)-piperazin-1-ylmethyl]-phenyl}-ethylamino)-8H-pyrido[2,3-d]pyrimidin-7-one], the figures for the IC50 (at IDH1^R132C; in test [1]; on IDH1WT enzyme) were 30 nM, 84 nM and 3900 nM, respectively.
In turn, `C=CC(=O)N1CCN(Cc2ccc([C@H](C)Nc3ncc4ccc(=O)n(C(C)C)c4n3)cn2)CC1` [cpd 213, 2-{[(1S)-1-{6-[(4-acryloylpiperazin-1-yl)methyl]pyridin-3-yl}ethyl]amino}-8-(propan-2-yl)pyrido[2,3-d]pyrimidin-7(8H)-one] had an IC50 at IDH1WT enzyme of 4290 nM.
With `CC[C@H](C)n1c(=O)ccc2cnc(N[C@@H](C)c3ccc(CN4CCCC(F)(F)C4)cc3)nc21` [cpd 62, 8-[(2S)-butan-2-yl]-2-{[(1S)-1-{4-[(3,3-difluoropiperidin-1-yl)methyl]phenyl}ethyl]amino}pyrido[2,3-d]pyrimidin-7(8H)-one], the IC50 was found to be 44 nM against IDH1^R132C; 169 nM in the test with HT-1080 (IDH1^R132C); 5700 nM at IDH2^R172K; 82 nM in test [1]; 462 nM with U87MG_IDH1R132H.
As to `C=CC(=O)N1CCN(Cc2ccc([C@H](C)Nc3ncc4ccc(=O)n(C(C)C)c4n3)cc2F)CC1` [cpd 183, 2-{[(1S)-1-{4-[(4-acryloylpiperazin-1-yl)methyl]-3-fluorophenyl}ethyl]amino}-8-(propan-2-yl)pyrido[2,3-d]pyrimidin-7(8H)-one], the IC50 against IDH1^R132C was determined as 39 nM; in the test with HT-1080 (IDH1^R132C), 21 nM; in test [1], 52 nM; on IDH1WT enzyme, 899 nM.
As to `C[C@H](Nc1ncc2ccc(=O)n(CC(C)(C)C(F)(F)F)c2n1)c1ccc(CN2CCC(F)(F)CC2)cc1` [cpd 116, 2-{[(1S)-1-{4-[(4,4-difluoropiperidin-1-yl)methyl]phenyl}ethyl]amino}-8-(3,3,3-trifluoro-2,2-dimethylpropyl) pyrido[2,3-d]pyrimidin-7(8H)-one], the IC50 against IDH1^R132C amounted to 101 nM; with HT-1080 (IDH1^R132C), 311 nM; against IDH2^R172K it was 5020 nM; in test [1] it was 176 nM; in the test on U87MG_IDH1R132H, 612 nM.
For `C=CC(=O)N1CC=C(c2ccc([C@H](C)Nc3ncc4ccc(=O)n([C@@H](C)C(C)C)c4n3)cc2)CC1` [cpd 168, 2-({(1S)-1-[4-(1-acryloyl-1,2,3,6-tetrahydropyridin-4-yl)phenyl]ethyl}amino)-8-[(2S)-3-methylbutan-2-yl]pyrido [2,3-d]pyrimidin-7(8H)-one], the IC50 came to 16 nM against IDH1^R132C, 137 nM against IDH2^R172K, 29 nM in test [1] and 758 nM on IDH1WT enzyme.
The matching figures for `C=CC(=O)N1CCN(Cc2ccc([C@H](C)Nc3ncc4ccc(=O)n([C@@H](C)C(C)C)c4n3)cc2)CC1` [cpd 161, 2-{(S)-1-[4-(4-Acryloyl-piperazin-1-ylmethyl)-phenyl]-ethylamino}-8-((S)-1,2-dimethyl-propyl)-8H-pyrido[2,3-d]pyrimidin-7-one]: 13 nM, 299 nM, 22 nM and 908 nM.
With `C[C@H](Nc1ncc2ccc(=O)n(CC(C)(C)C)c2n1)c1ccc(Oc2ccccc2)cc1` [cpd 49, 8-(2,2-dimethylpropyl)-2-{[(1S)-1-(4-phenoxyphenyl)ethyl]amino}pyrido[2,3-d]pyrimidin-7(8H)-one], the IC50 against IDH1^R132C stood at 67 nM; in the test on HT-1080 (IDH1^R132C), 307 nM; on IDH2^R172K it was 4360 nM; in test [1], 118 nM; with U87MG_IDH1R132H, 507 nM.
For the compound `C=CC(=O)N1CCN(Cc2ccc([C@H](C)Nc3ncc4ccc(=O)n(CC)c4n3)cc2)CC1` [cpd 186, 2-{[(1S)-1-{4-[(4-acryloylpiperazin-1-yl)methyl]phenyl}ethyl]amino}-8-ethylpyrido[2,3-d]pyrimidin-7(8H)-one], the IC50 was 811 nM on IDH1^R132C, 431 nM on IDH2^R172K, 392 nM in test [1] and 5460 nM against IDH1WT enzyme.
On to `C=CC(=O)N1CCN(Cc2ccc([C@H](C)Nc3ncc4ccc(=O)n([C@@H](C)C(F)(F)F)c4n3)cc2)CC1` [cpd 169, 2-{[(1S)-1-{4-[(4-acryloylpiperazin-1-yl)methyl]phenyl}ethyl]amino}-8-[(2S)-1,1,1-trifluoropropan-2-yl]pyrido [2,3-d]pyrimidin-7(8H)-one], for which the IC50 on IDH1^R132C was 179 nM; at IDH2^R172K, 414 nM; in test [1], 193 nM; against IDH1WT enzyme it was 2850 nM.
